Key:
[1] = biological target: T1, LXRβ ligand-binding domain (Homo sapiens, UniProt P55055, DUP175-175); test: TR-FRETβ activity assay (NCoA3 coactivator peptide recruitment); type: biochemical; settings: TR-FRET, 1 μM 24(S)-25-epoxycholesterol prestimulation; read-out: FRETβ (EC50 range)
T1 construct: amino acids 156-461; NP009052; made in house; host or cells: E. coli
T1 sequence (P55055 with tags, fused parts or gaps DUP175-175 limits assumed): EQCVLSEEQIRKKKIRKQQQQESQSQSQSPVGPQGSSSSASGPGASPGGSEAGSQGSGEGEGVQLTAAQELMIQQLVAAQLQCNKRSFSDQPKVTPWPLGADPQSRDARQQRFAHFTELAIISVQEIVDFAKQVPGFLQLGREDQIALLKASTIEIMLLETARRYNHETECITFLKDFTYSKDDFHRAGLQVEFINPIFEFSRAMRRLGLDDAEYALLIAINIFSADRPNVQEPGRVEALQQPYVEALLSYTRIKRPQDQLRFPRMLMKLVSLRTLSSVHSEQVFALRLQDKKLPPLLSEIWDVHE
Method: (§1) The tested compounds were usually dissolved, tested and stored as 20 mM stock solutions in DMSO. Since sulfonyl acetic acid derivatives tend to decarboxylate under these conditions, these stock solutions were prepared, tested and stored as 20 mM DMSO stock solutions containing 100 mM trifluoroacetic Acid (5 equivalents). Sulfonyl acetic acid derivatives are shelf stable as solid at rt for long time as reported by Griesbrecht et al. (Synlett 2010:374) or Faucher et al. (J. Med. Chem. 2004; 47:18).
Recombinant GST-LXRPβ ligand-binding domain (LBD; amino acids 156-461; NP009052; SEQ ID NO:4) was expressed in E. coli and purified via gluthatione-sepharose affinity chromatography. N-terminally biotinylated NCoA3 coactivator peptide (SEQ ID NO:7) was chemically synthesized (Eurogentec). Assays were done in 384 well format (final assay volume of 25 μL/well) in a Tris/HCl buffer (pH 6.8) containing KCl, bovine serum albumin, Triton-X-100 and 1 μM 24(S)-25-epoxycholesterol as LXR-prestimulating agonist. Assay buffer was provided and test articles (potential LXR inverse agonists) were titrated to yield final assay concentrations of 50 μM, 16.7 μM, 5.6 μM, 1.9 μM, 0.6 μM, 0.2 μM, 0.07 μM, 0.02 μM, 0.007 μM, 0.002 μM with one vehicle control. Finally, a detection mix was added containing anti GST-Tb cryptate (CisBio; 610SAXLB) and Streptavidin-XL665 (CisBio; 610SAXLB) as fluorescent donor and acceptor, respectively, as well as the coactivator peptide and LXRβ-LBD protein (SEQ ID NO:4). The reaction was mixed thoroughly, equilibrated for 1 h at 4° C. and vicinity of LXRβ and coactivator peptide was detected by measurement of fluorescence in a VictorX4 multiplate reader (PerkinElmer Life Science) using 340 nm as excitation and 615 and 665 nm as emission wavelengths. Assays were performed in triplicates.
Final Assay Concentrations of Components:
240 mM KCl, 1 μg/μL BSA, 0.002% Triton-X-100, […] anti GST-Tb cryptate, 2.5 ng/μL Streptavidin-XL665, coactivator peptide (400 nM), LXRβ protein (530 μg/mL, i.e. 76 nM).

full length (FL) LXRα = biological target: T2, full length (FL) LXRα (Homo sapiens, UniProt Q13133); test: LXR Gal4 reporter transient transfection assay (FL-M2H Gal4α); type: cell-based; settings: HEK293 cells, full length LXRα; read-out: FL-M2H Gal4α (EC50 range)
T2 construct: the full length (FL) proteins of LXRα (amino acids 1-447); NP005684; expressed in transfected cells; host or cells: HEK293
T2 sequence (Q13133 1-447): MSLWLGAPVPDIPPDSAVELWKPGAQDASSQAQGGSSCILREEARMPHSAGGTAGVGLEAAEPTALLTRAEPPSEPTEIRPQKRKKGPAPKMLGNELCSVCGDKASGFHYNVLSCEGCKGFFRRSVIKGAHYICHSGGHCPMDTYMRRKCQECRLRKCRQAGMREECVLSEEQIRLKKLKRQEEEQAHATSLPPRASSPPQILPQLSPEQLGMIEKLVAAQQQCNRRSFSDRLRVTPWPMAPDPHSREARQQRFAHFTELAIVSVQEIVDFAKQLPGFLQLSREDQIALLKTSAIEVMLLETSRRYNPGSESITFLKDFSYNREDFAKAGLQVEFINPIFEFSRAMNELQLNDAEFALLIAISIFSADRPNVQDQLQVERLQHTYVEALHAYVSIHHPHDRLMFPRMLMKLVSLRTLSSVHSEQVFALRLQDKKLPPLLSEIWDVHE
Method: as §1
(§2) LXR Gal4 Reporter Transient Transfection Assays
(§3) LXRα and LXRβ activity status was determined via detection of interaction with coactivator and corepressor proteins in mammalian two-hybrid experiments (M2H). For this, via transient transfection the full length (FL) proteins of LXRα (amino acids 1-447; NP005684; SEQ ID NO:1) or LXRβ-(amino acids 1-461; NP009052; SEQ ID NO:2) or the ligand-binding domains (LBD) of LXRα (amino acids 155-447 SEQ ID NO:3) or LXRβ (amino acids 156-461; SEQ ID NO:4) were expressed from pCMV-AD (Stratagene) as fusions to the transcriptional activation domain of NFkB. As cofactors, domains of either the steroid receptor coactivator 1 (SRC1; amino acids 552-887; SEQ ID NO:5) or of the corepressor NCoR (amino acids 1906-2312; NP006302; SEQ ID NO:6) were expressed as fusions to the DNA binding domain of the yeast transcription factor GAL4 (from pCMV-BD; Stratagene). Interaction was monitored via activation of a coexpressed Firefly Luciferase Reporter gene under control of a promoter containing repetitive GAL4 response elements (vector pFRLuc; Stratagene). Transfection efficiency was controlled via cotransfection of constitutively active pRL-CMV Renila reniformis luciferase reporter (Promega). HEK293 cells were grown in minimum essential medium (MEM) with 2 mM L-glutamine and Earle's balanced salt solution supplemented with 8.3% fetal bovine serum, 0.1 mM non-essential amino acids, 1 mM sodium pyruvate, at 37° C. in 5% CO2. 3.5×10^4 cells/well were plated in 96-well cell culture plates in growth medium supplemented with 8.3% fetal bovine serum for 16-20 h to ˜90% confluency. For transfection, medium was taken off and LXR and cofactor expressing plasmids as well as the reporter plasmids are added in 30 μL OPTIMEM/well including polyethylene-imine (PEI) as vehicle. Typical amounts of plasmids transfected/well: pCMV-AD-LXR (5 ng), pCMV-BD-cofactor (5 ng), pFR-Luc (100 ng), pRL-CMV (0.5 ng). Compound stocks were prepared in DMSO, prediluted in MEM to a total volume of 120 μL, and added 4 h after addition of the transfection mixture (final vehicle concentration not exceeding 0.2%). Cells were incubated for additional 16 h, lysed for 10 min in 1× Passive Lysis Buffer (Promega) and Firefly and Renilla luciferase activities were measured sequentially in the same cell extract using buffers containing D-luciferine and coelenterazine, respectively. Measurements of luminescence were done in a BMG-luminometer.

full length (FL) LXRβ = biological target: T3, full length (FL) LXRβ (Homo sapiens, UniProt P55055, DUP175-175); test: LXR Gal4 reporter transient transfection assay (FL-M2H Gal4β); type: cell-based; settings: HEK293 cells, full length LXRβ; read-out: FL-M2H Gal4β (EC50 range)
T3 construct: the full length (FL) proteins of LXRα (amino acids 1-447); NP005684; NP009052; expressed in transfected cells; host or cells: HEK293
T3 sequence (P55055 with tags, fused parts or gaps DUP175-175): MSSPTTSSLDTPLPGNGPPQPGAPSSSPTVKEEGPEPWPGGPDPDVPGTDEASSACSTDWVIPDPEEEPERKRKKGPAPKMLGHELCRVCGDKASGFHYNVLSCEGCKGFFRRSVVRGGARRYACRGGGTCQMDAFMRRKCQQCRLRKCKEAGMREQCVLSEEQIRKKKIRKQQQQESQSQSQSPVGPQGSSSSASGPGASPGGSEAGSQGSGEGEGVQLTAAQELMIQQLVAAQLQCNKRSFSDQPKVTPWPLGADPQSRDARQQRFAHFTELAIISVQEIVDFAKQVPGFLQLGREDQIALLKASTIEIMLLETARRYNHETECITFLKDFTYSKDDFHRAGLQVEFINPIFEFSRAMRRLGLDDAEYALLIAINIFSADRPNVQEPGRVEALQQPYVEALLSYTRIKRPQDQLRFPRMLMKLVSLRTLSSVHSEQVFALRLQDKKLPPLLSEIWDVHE
Method: as §1, §2, §3

Structure (SMILES) | EC50 [1] | EC50 (full length (FL) LXRα) | EC50 (full length (FL) LXRβ)
COCc1sccc1-c1c(-c2cccc(N3CC(C(=O)O)C3)c2)n(S(=O)(=O)c2ccc(C)cc2)c2ccc(F)cc12 [3/6] | 1000 to 10000 nM | 100 to 1000 nM | 100 to 1000 nM
CCc1ccc(S(=O)(=O)n2c(-c3cccc(N4CC(C(=O)O)C4)c3)c(-c3ccsc3C#N)c3cc(F)ccc32)cc1 [3/10] | 100 to 1000 nM | 100 to 1000 nM | < 100 nM
N#Cc1sccc1-c1c(-c2cccc(N3CC(C(=O)O)C3)c2)n(S(=O)(=O)c2ccc3c(c2)CCC3)c2ccc(F)cc12 [3/12] | 100 to 1000 nM | < 100 nM | < 100 nM
N#Cc1sccc1-c1c(-c2cccc(N3CC(C(=O)O)C3)c2)n(S(=O)(=O)c2ccc3ccccc3c2)c2ccc(F)cc12 [3/13] | 1000 to 10000 nM | < 100 nM | < 100 nM
Cc1ccc(S(=O)(=O)n2c(-c3cccc(N4CC(C(=O)O)C4)c3)c(-c3ccsc3C#N)c3cc(F)ccc32)c(F)c1 [3/14] | 1000 to 10000 nM | 100 to 1000 nM | 100 to 1000 nM
CC1CCN(S(=O)(=O)n2c(-c3cccc(-c4ccc(C(=O)O)cc4Cl)c3)c(-c3ccsc3C#N)c3cc(F)ccc32)CC1 [3/21] | 100 to 1000 nM | < 100 nM | < 100 nM
[2H]c1c([2H])c(S(=O)(=O)n2c(-c3cccc(-c4ccc(C(=O)O)cc4Cl)c3)c(-c3ccsc3C#N)c3cc(F)ccc32)c([2H])c([2H])c1C([2H])([2H])[2H] [3/22] | < 100 nM | < 100 nM | < 100 nM
Cc1cc(S(=O)(=O)n2c(-c3cccc(-c4ccc(C(=O)O)cc4Cl)c3)c(-c3ccsc3C#N)c3cc(F)ccc32)ccc1F [3/23] | 100 to 1000 nM | < 100 nM | < 100 nM
Cc1ccc(S(=O)(=O)n2c(-c3cccc(N4CC(C(=O)O)C4)c3)c(-c3sccc3C#N)c3cc(F)ccc32)cc1 [3/25] | 1000 to 10000 nM | 100 to 1000 nM | < 100 nM
Cc1ccc(S(=O)(=O)n2c(-c3cccc(N4CC(C(=O)O)C4)c3)c(-c3ccoc3C#N)c3cc(F)ccc32)cc1 [3/26] | 1000 to 10000 nM | 100 to 1000 nM | < 100 nM
Cc1ccc(S(=O)(=O)n2c(-c3cccc(N4CC(C(=O)O)C4)c3)c(-c3ccsc3CCO)c3cc(F)ccc32)cc1 [3/27] | 1000 to 10000 nM | 100 to 1000 nM | 100 to 1000 nM
Cc1ccc(S(=O)(=O)n2c(-c3cccc(N4CC(C(=O)O)C4)c3)c(-c3ccsc3C(F)(F)F)c3cc(F)ccc32)cc1 [3/30] | 100 to 1000 nM | < 100 nM | < 100 nM
Cc1ccc(S(=O)(=O)n2c(-c3cccc(N4CC(C(=O)O)C4)c3)c(-c3ccccc3C3COC3)c3cc(F)ccc32)cc1 [3/31] | 100 to 1000 nM | 100 to 1000 nM | 100 to 1000 nM
COc1ccc(S(=O)(=O)n2c(-c3cccc(N4CC(C(=O)O)C4)c3)c(-c3ccsc3C#N)c3cc(F)ccc32)cc1 [3/33] | 1000 to 10000 nM | 100 to 1000 nM | < 100 nM
N#Cc1sccc1-c1c(-c2cccc(N3CC(C(=O)O)C3)c2)n(S(=O)(=O)c2ccc(C(F)(F)F)cc2)c2ccc(F)cc12 [3/34] | 100 to 1000 nM | 100 to 1000 nM | < 100 nM
N#Cc1sccc1-c1c(-c2cccc(N3CC(C(=O)O)C3)c2)n(S(=O)(=O)c2ccc(C(F)F)cc2)c2ccc(F)cc12 [3/35] | 100 to 1000 nM | 100 to 1000 nM | < 100 nM
CC1CCN(S(=O)(=O)n2c(-c3cccc(N4CC(C(=O)O)C4)c3)c(-c3ccsc3C#N)c3cc(F)ccc32)CC1 [3/36] | 1000 to 10000 nM | 100 to 1000 nM | 100 to 1000 nM
Cc1ccc(S(=O)(=O)n2c(-c3cccc(N4CC(C)(C(=O)O)C4)c3)c(-c3ccsc3C#N)c3cc(F)ccc32)cc1 [3/37] | 100 to 1000 nM | < 100 nM | < 100 nM
Cc1ccc(S(=O)(=O)n2c(-c3cccc(N4CCC(C(=O)O)CC4)c3)c(-c3ccsc3C#N)c3cc(F)ccc32)cc1 [3/38] | 100 to 1000 nM | < 100 nM | < 100 nM
Cc1ccc(S(=O)(=O)n2c(-c3cccc(C4CC(C(=O)O)C4)c3)c(-c3ccsc3C#N)c3cc(F)ccc32)cc1 (stereo not drawn) [3/39] | 100 to 1000 nM | 100 to 1000 nM | < 100 nM
Cc1ccc(S(=O)(=O)n2c(-c3cc(N4CC(C(=O)O)C4)ccc3Cl)c(-c3ccsc3C#N)c3cc(F)ccc32)cc1 [3/40] | 1000 to 10000 nM | 100 to 1000 nM | < 100 nM
Cc1ccc(S(=O)(=O)n2c(-c3cc(N4CC(C(=O)O)C4)ccc3F)c(-c3ccsc3C#N)c3cc(F)ccc32)cc1 [3/41] | 1000 to 10000 nM | < 100 nM | < 100 nM
